Experimental data as given in patent US10780090B2, “Heteroaryl compounds useful as inhibitors of SUMO activating enzyme” (Millennium Pharmaceuticals, Inc., priority 2014, dated 2020).
Read-outs that look alike come from different tables or passages of the source.

Target: recombinant human SAE enzyme (Homo sapiens (Human), UniProt Q9UBT2)
Experiment: SAE HTRF enzyme assay
Assay type: biochemical
Conditions: for inhibition at 0.111 µM: read-out: Percent Inhibition
Summary of the method: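 Enzyme reaction: 50 mM HEPES pH 7.5, 5 mM MgCl2, 250 μM GSH, 0.05% BSA, 0.5 μM ATP, 0.01 μM Ubc9-GST, 0.125 μM Sumo-Flag, 0.11 nM SAE; 105 min, 24° C. Stop/detect, 2 h, then HTRF. % inh or IC50.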

[1] = SAE inhibition at compound concentration 0.111 μM
[2] = SAE inhibition, class symbols, legend in nM

recombinant human SAE enzyme, sequence (Q9UBT2 whole entry): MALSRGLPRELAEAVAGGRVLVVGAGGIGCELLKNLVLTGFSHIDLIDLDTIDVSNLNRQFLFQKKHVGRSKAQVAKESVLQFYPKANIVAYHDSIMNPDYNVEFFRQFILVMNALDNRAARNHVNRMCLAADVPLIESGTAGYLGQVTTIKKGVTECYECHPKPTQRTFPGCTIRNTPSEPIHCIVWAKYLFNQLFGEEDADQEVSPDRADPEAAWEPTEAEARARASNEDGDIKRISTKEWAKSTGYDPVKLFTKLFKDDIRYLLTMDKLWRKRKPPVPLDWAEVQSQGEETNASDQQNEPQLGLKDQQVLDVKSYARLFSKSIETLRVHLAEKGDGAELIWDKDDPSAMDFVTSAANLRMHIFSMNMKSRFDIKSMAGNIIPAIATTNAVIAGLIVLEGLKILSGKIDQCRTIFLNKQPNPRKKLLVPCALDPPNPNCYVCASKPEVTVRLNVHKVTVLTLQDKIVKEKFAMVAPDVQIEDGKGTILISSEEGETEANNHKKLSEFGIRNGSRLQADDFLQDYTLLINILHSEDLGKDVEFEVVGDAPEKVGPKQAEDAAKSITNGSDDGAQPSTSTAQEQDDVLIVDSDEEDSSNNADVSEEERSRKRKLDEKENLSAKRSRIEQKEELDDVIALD
recombinant human SAE enzyme, sequence (Q9UBE0 whole entry partner): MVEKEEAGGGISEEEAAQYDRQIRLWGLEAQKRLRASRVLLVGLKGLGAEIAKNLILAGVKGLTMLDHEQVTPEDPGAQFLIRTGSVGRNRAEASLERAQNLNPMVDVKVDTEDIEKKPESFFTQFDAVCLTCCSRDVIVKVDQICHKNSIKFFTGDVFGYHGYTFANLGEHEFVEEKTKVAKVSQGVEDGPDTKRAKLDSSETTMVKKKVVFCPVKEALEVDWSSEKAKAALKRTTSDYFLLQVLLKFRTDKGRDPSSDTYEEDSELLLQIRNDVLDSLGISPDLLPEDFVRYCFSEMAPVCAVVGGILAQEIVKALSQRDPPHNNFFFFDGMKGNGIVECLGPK

Row | Compound | Percent Inhibition (Concentration 0.111 μM) | IC50 (class symbols A/B/C) | Percent Inhibition [1] | IC50 [2] | inhibition at 0.111 µM (Concentration 0.111 μM) | also measured
1 | NS(=O)(=O)OCC1CC(Nc2ncncc2C(=O)c2cc(C(O)(c3cccc(Cl)c3)C3CC3)cs2)CC1O (mixture of isomers) [I-50, [(1R,2S,4R)-4-{[5-({4-[(S)-(3-chlorophenyl)(cyclopropyl)hydroxymethyl]-2-thienyl}carbonyl)pyrimidin-4-yl]amino}-2-hydroxycyclopentyl]methyl sulfamate and [(1R,2S,4R)-4-{[5-({4-[(R)-(3-chlorophenyl)(cyclopropyl)hydroxymethyl]-2-thienyl}carbonyl)pyrimidin-4-yl]amino}-2-hydroxycyclopentyl]methyl sulfamate] | 99 | < 10 nM |  |  |  | 
2 | Cc1sc(C(=O)c2cncnc2N[C@@H]2C[C@H](COS(N)(=O)=O)[C@@H](O)C2)cc1[C@@H]1OCCc2sccc21 (mixture of isomers) [I-275, [(1R,2S,4R)-4-{[5-({4-[(4S)-6,7-dihydro-4H-thieno[3,2-c]pyran-4-yl]-5-methyl-2-thienyl}carbonyl)pyrimidin-4-yl]amino}-2-hydroxycyclopentyl]methyl sulfamate and [(1R,2S,4R)-4-{[5-({4-[(4R)-6,7-dihydro-4H-thieno[3,2-c]pyran-4-yl]-5-methyl-2-thienyl}carbonyl)pyrimidin-4-yl]amino}-2-hydroxycyclopentyl]methyl sulfamate] | 97 | < 10 nM |  |  |  | 
3 | NS(=O)(=O)OC[C@H]1C[C@@H](Nc2ncncc2C(=O)c2cc([C@@H]3OCCc4cc(F)c(F)cc43)c(Cl)s2)C[C@@H]1O (single isomer, unassigned) [I-290a, [(1R,2S,4R)-4-{[5-({5-chloro-4-[(1R)-6,7-difluoro-3,4-dihydro-1H-isochromen-1-yl]-2-thienyl}carbonyl)pyrimidin-4-yl]amino}-2-hydroxycyclopentyl]methyl sulfamate or [(1R,2S,4R)-4-{[5-({5-chloro-4-[(1S)-6,7-difluoro-3,4-dihydro-1H-isochromen-1-yl]-2-thienyl}carbonyl)pyrimidin-4-yl]amino}-2-hydroxycyclopentyl]methyl sulfamate] |  |  | 62% | 10 to 100 nM |  | 
4 | Cc1nc2c(s1)CCO[C@H]2c1cc(C(=O)c2cncnc2N[C@@H]2C[C@H](COS(N)(=O)=O)[C@@H](O)C2)sc1C (mixture of isomers) [I-287, [(1R,2S,4R)-2-hydroxy-4-{[5-({5-methyl-4-[(4S)-2-methyl-6,7-dihydro-4H-pyrano[3,4-d][1,3]thiazol-4-yl]-2-thienyl}carbonyl)pyrimidin-4-yl]amino}cyclopentyl]methyl sulfamate and [(1R,2S,4R)-2-hydroxy-4-{[5-({5-methyl-4-[(4R)-2-methyl-6,7-dihydro-4H-pyrano[3,4-d][1,3]thiazol-4-yl]-2-thienyl}carbonyl)pyrimidin-4-yl]amino}cyclopentyl]methyl sulfamate] |  |  | 97% | < 10 nM |  | 
5 | NS(=O)(=O)OC[C@H]1C[C@@H](Nc2ncncc2C(=O)c2ccc(S(=O)(=O)c3ccccc3)o2)C[C@@H]1O [I-239, [(1R,2S,4R)-2-Hydroxy-4-(5-[5-(phenylsulfonyl)-2-furoyl]pyrimidin-4-yl}amino)cyclopentyl]methyl sulfamate] | 14 | 100 to 1000 nM |  |  |  | 
6 | NS(=O)(=O)OC[C@H]1C[C@@H](Nc2ncncc2C(=O)c2cc(Cc3cccc(Br)c3)cs2)[C@@H](F)[C@@H]1O [I-101, {(1R,2R,3R,4R)-4-[(5-{[4-(3-bromobenzyl)-2-thienyl]carbonyl}pyrimidin-4-yl)amino]-3-fluoro-2-hydroxycyclopentyl}methyl sulfamate] |  | < 10 nM |  |  | 96% | 
7 | Cc1sc(C(=O)c2cncnc2N[C@@H]2C[C@H](COS(N)(=O)=O)[C@@H](O)C2)cc1[C@@H]1OCCc2ccccc21 [I-256b, [(1R,2S,4R)-4-{[5-({4-[(1R)-3,4-Dihydro-1H-isochromen-1-yl]-5-methyl-2-thienyl}carbonyl)pyrimidin-4-yl]amino}-2-hydroxycyclopentyl]methyl sulfamate] |  | < 10 nM |  |  | 99% | 
8 | Cc1ccc2c(c1)[C@H](c1cc(C(=O)c3cncnc3N[C@@H]3C[C@H](COS(N)(=O)=O)[C@@H](O)C3)sc1C)OCC2 (mixture of isomers) [I-347, [(1R,2S,4R)-2-hydroxy-4-{[5-({5-methyl-4-[(1R)-7-methyl-3,4-dihydro-1H-isochromen-1-yl]-2-thienyl}carbonyl)pyrimidin-4-yl]amino}cyclopentyl]methyl sulfamate and [(1R,2S,4R)-2-hydroxy-4-{[5-({5-methyl-4-[(1S)-7-methyl-3,4-dihydro-1H-isochromen-1-yl]-2-thienyl}carbonyl)pyrimidin-4-yl]amino}cyclopentyl]methyl sulfamate] |  |  | 97% | < 10 nM |  | 
9 | CC(C)Oc1ccccc1OCc1csc(C(=O)c2cncnc2N[C@@H]2C[C@H](COS(N)(=O)=O)[C@@H](O)C2)c1 [I-201, [(1R,2S,4R)-2-hydroxy-4-{[5-({4-[(2-isopropoxyphenoxy)methyl]-2-thienyl}carbonyl)pyrimidin-4-yl]amino}cyclopentyl]methyl sulfamate] |  | 10 to 100 nM |  |  | 60% | 
10 | Cc1sc(C(=O)c2cncnc2N[C@@H]2C[C@H](COS(N)(=O)=O)[C@@H](OC(=O)CN)C2)cc1[C@@H]1OCCc2ccc(Cl)cc21 [I-330, (1S,2R,4R)-4-{[5-({4-[(1R)-7-chloro-3,4-dihydro-1H-isochromen-1-yl]-5-methyl-2-thienyl}carbonyl)pyrimidin-4-yl]amino}-2-[(sulfamoyloxy)methyl]cyclopentyl aminoacetate] |  |  |  | 100 to 1000 nM |  | inhibition at 0.111 µM [1]: 34%
11 | Cc1ccc2c(n1)C(c1cc(C(=O)c3cncnc3N[C@@H]3C[C@H](COS(N)(=O)=O)[C@@H](O)C3)sc1C)OCC2 (single isomer, unassigned) [I-291b, [(1R,2S,4R)-2-hydroxy-4-{[5-({5-methyl-4-[(8S)-2-methyl-5,8-dihydro-6H-pyrano[3,4-b]pyridin-8-yl]-2-thienyl}carbonyl)pyrimidin-4-yl]amino}cyclopentyl]methyl sulfamate or [(1R,2S,4R)-2-hydroxy-4-{[5-({5-methyl-4-[(8R)-2-methyl-5,8-dihydro-6H-pyrano[3,4-b]pyridin-8-yl]-2-thienyl}carbonyl)pyrimidin-4-yl]amino}cyclopentyl]methyl sulfamate] |  |  | 99% | < 10 nM |  | 
12 | NS(=O)(=O)OC[C@H]1C[C@@H](Nc2ncncc2C(=O)c2cc(CCc3ccc(Cl)cc3)cs2)C[C@@H]1O [I-178, [(1R,2S,4R)-4-{[5-({4-[2-(4-chlorophenyl)ethyl]-2-thienyl}carbonyl)pyrimidin-4-yl]amino}-2-hydroxycyclopentyl]methyl sulfamate] |  | 10 to 100 nM |  |  | 87% | 
13 | NS(=O)(=O)OC[C@H]1C[C@@H](Nc2ncncc2C(=O)c2cc([C@]3(c4cccc(Cl)c4)CCO3)c(Cl)s2)C[C@@H]1O (mixture of isomers) [I-67, [(1R,2S,4R)-4-{[5-({5-chloro-4-[(2R)-2-(3-chlorophenyl)oxetan-2-yl]-2-thienyl}carbonyl)pyrimidin-4-yl]amino}-2-hydroxycyclopentyl]methyl sulfamate and [(1R,2S,4R)-4-{[5-({5-chloro-4-[(2S)-2-(3-chlorophenyl)oxetan-2-yl]-2-thienyl}carbonyl)pyrimidin-4-yl]amino}-2-hydroxycyclopentyl]methyl sulfamate] | 99 | < 10 nM |  |  |  | 
